Like-named read-outs stand apart in the source and are kept apart here.
Assays:
[1] = test system: A. thaliana cell suspensions; assay: In vivo labeling of A. thaliana cell suspensions with D-[U-14C]Man and L-AA determination; assay type: cell-based, Arabidopsis thaliana; settings: pre-incubated 20 hours with 2.5 mM compound; for [^14C]-labeled L-AA / [^14C]-labeled L-AA (% of control): labeled two hours with D-[U-14C]Man; for Cold L-AA: acid extracts, HPLC
Procedure: GDP-Man 3″,5″-epimerase assay and L-AA determination. The GDP-Man 3″,5″-epimerase activity and L-AA were measured by the HPLC method as described (13), with the exception that the concentration of methanol in solvent A was 0.5% and the flow rate was 0.8 ml/min.
In vivo labeling of A. thaliana cell suspensions with D-[U-14C]Man. In vivo labeling of A. thaliana cells was performed as described (13). Cell suspensions were pre-adapted to labeling conditions for 20 hours in the presence or absence of exogenous L-AA or its precursors (2.5 mM), followed by two hours labeling with 1 μCi of D-[U-14C]Man. L-AA was extracted with 5% metaphosphoric acid containing 2 mM DTT and 1 mM EDTA.

[2] = target: T1, GDP-Man 3″,5″-epimerase of A. thaliana (Arabidopsis thaliana, UniProt Q93VR3); assay: GDP-Man 3″,5″-epimerase assay (HPLC); assay type: biochemical; settings: for epimerase activity: purified epimerase, exogenously added dinucleotide; for inhibition at 1000 µM: read-out: inhibition of the epimerase activity
T1 construct: The hydroxylapatite fraction of native epimerase (11) was used; endogenous in cells; host or cells: Arabidopsis thaliana ecotype Columbia cell suspensions; enzyme purified, hydroxylapatite fraction
T1 sequence (Q93VR3 1-377): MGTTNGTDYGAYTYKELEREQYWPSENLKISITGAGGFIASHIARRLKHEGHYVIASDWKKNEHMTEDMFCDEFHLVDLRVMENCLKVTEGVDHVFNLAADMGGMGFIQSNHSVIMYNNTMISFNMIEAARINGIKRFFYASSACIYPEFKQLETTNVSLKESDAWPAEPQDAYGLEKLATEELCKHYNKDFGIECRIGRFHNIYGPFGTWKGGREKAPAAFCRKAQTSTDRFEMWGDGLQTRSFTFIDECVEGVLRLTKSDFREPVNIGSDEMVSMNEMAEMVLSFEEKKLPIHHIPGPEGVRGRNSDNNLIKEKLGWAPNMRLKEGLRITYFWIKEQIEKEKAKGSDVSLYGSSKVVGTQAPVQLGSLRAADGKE
Procedure: Characterization of GDP-Man 3″,5″-epimerase of A. thaliana. (A) Steady-state parameters of the native (purified from A. thaliana cell suspensions) and recombinant enzyme. The hydroxylapatite fraction of native epimerase (11) was used. The affinity-purified recombinant enzymes were used. […] Double reciprocal plots are shown and each line represents a fixed GDP concentration: 0 μM, circles; 2 μM, triangles; and 4 μM, squares. V0 is pmol of GDP-L-Gal/L-Gul produced per minute. GDP-Man concentrations were from 1.1 to 5.5 μM. Inset: Secondary plot of slopes versus GDP concentration was used to determine the Ki value for GDP. […] Incubations contained GDP-[^14C]Man (3.4 μM), increasing amounts of GDP-L-Fuc, and an aliquot of the hydroxylapatite fraction of epimerase. Kinetic measurements were performed in duplicates; standard deviation was equal or less than 5%.

[3] = test system: Chlorella epimerase; settings: read-out: Km for the GDP-Man substrate; cited from earlier work

Compound | Cold L-AA (% of control) [1] | [^14C]-labeled L-AA [1] | [^14C]-labeled L-AA (% of control) [1] | Cold L-AA [1] | other results
O=C1O[C@H]([C@@H](O)CO)[C@H](O)[C@@H]1O [L-Gulono-1,4-lactone, L-gulono-1,4-lactone] | 165 % of control | 722 10^−3 × cpm/mg fw | 54 % of control | 345 nmol/g fw | 
Nc1nc2c(ncn2[C@@H]2O[C@H](COP(=O)(O)OP(=O)(O)O[C@H]3O[C@H](CO)[C@@H](O)[C@H](O)[C@@H]3O)[C@@H](O)[C@H]2O)c(=O)[nH]1 [GDP-Man, GDP-D-mannose] |  |  |  |  | Km ([2]; native epimerase, FIG. 1A, read-out: Km for the GDP-Man substrate): 4.4 µM; Km [3]: 96 µM
NC(=O)C1=CN([C@@H]2O[C@H](COP(=O)(O)OP(=O)(O)OC[C@H]3O[C@@H](n4cnc5c(N)ncnc54)[C@H](O)[C@@H]3O)[C@@H](O)[C@H]2O)C=CC1 [NADH] |  |  |  |  | epimerase activity [2]: 78 % of control
adenosine diphospho-D-glucose [ADP-D-Glc] |  |  |  |  | effect on the enzyme activity ([2]; adenosine derivative): no effect
NC(=O)c1ccc[n+]([C@@H]2O[C@H](COP(=O)([O-])OP(=O)(O)OC[C@H]3O[C@@H](n4cnc5c(N)ncnc54)[C@H](OP(=O)(O)O)[C@@H]3O)[C@@H](O)[C@H]2O)c1 [NADP+] |  |  |  |  | epimerase activity [2]: 110 % of control
Nc1nc2c(ncn2[C@@H]2O[C@H](COP(=O)(O)OP(=O)(O)O)[C@@H](O)[C@H]2O)c(=O)[nH]1 [GDP] |  |  |  |  | Ki [2]: 0.7 µM
O=C1O[C@H]([C@@H](O)CO)C(O)=C1O [L-AA, L-ascorbic acid] | 832 % of control | 448 10^−3 × cpm/mg fw | 33 % of control | 1764 nmol/g fw | inhibition at 1000 µM ([2]; 1 mM): 15%
O=C1O[C@H]([C@H](O)CO)C(O)=C1O [D-isoascorbic acid] |  |  |  |  | inhibition of the epimerase activity ([2]; 1 mM): no effect
NC(=O)C1=CN([C@@H]2O[C@H](COP(=O)(O)OP(=O)(O)OC[C@H]3O[C@@H](n4cnc5c(N)ncnc54)[C@H](OP(=O)(O)O)[C@@H]3O)[C@@H](O)[C@H]2O)C=CC1 [NADPH] |  |  |  |  | epimerase activity [2]: 88 % of control
O=C[C@@H](O)[C@H](O)[C@H](O)[C@@H](O)CO [L-galactose] | 315 % of control | 423 10^−3 × cpm/mg fw | 32 % of control | 668 nmol/g fw | inhibition of the epimerase activity ([2]; 1 mM): no effect
O=C[C@@H](O)[C@@H](O)[C@H](O)[C@@H](O)CO [L-Gulose, L-gulose] | 190 % of control | 872 10^−3 × cpm/mg fw | 65 % of control | 403 nmol/g fw | 
Nc1nc2c(ncn2[C@@H]2O[C@H](COP(=O)(O)OP(=O)(O)O[C@H]3O[C@H](CO)[C@@H](O)[C@H](O)[C@H]3O)[C@@H](O)[C@H]2O)c(=O)[nH]1 [GDP-Glc, guanosine diphospho-D-glucose] |  |  |  |  | Ki [2]: 5 µM
C[C@@H]1O[C@H](OP(=O)(O)OP(=O)(O)OC[C@H]2O[C@@H](n3cnc4c(=O)[nH]c(N)nc43)[C@H](O)[C@@H]2O)[C@@H](O)[C@H](O)[C@@H]1O [GDP-L-Fuc, Guanosine diphospho-L-fucose] |  |  |  |  | IC50 [2]: 70 µM; type of inhibition of the epimerase ([2]; even at 1 mM concentration): partial inhibition
NC(=O)c1ccc[n+]([C@@H]2O[C@H](COP(=O)([O-])OP(=O)(O)OC[C@H]3O[C@@H](n4cnc5c(N)ncnc54)[C@H](O)[C@@H]3O)[C@@H](O)[C@H]2O)c1 [NAD+] |  |  |  |  | epimerase activity [2]: 145 % of control
O=C1O[C@H]([C@@H](O)CO)[C@@H](O)[C@@H]1O [L-galactono-1,4-lactone] | 170 % of control | 790 10^−3 × cpm/mg fw | 59 % of control | 360 nmol/g fw | inhibition at 1000 µM [2]: 14%
